# Experimental data published in patent US20220062240A1, “METHODS OF TREATING CANCER USING A CLK INHIBITOR” (BioSplice Therapeutics, Inc., priority 2018, published 2022).
# Read-outs that look alike come from different tables or passages of the source.
# Tests used:
# [1] = tested on: all 50 cell lines; assay: CellTiter-Glo Viability Assay, average across all cell lines; format: cell-based; conditions: Homo sapiens; across all 50 cell lines; read-out: average EC50 for inhibition of cancer cell proliferation
# Summary of the method: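 Human cancer cell lines from breast, colorectal, haematopoietic/lymphoid, liver, lung, ovarian, pancreatic and prostate tumours were seeded at 300-3,000 cells/well and exposed to compound in duplicate for four days at 37° C, 5% CO2. Viable cells were measured by ATP luminescence; EC50 values came from dose-response curves.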
# [2] = tested on: pancreatic cancer (8 cell lines); assay: CellTiter-Glo Viability Assay, pancreatic cancer; format: cell-based; conditions: Homo sapiens, inhibition of cancer cell proliferation
# [3] = tested on: haematopoietic & lymphoid tumors (13 cell lines); assay: CellTiter-Glo Viability Assay, haematopoietic & lymphoid tumors; format: cell-based; conditions: Homo sapiens, inhibition of cancer cell proliferation
# [4] = tested on: BT-549; assay: CellTiter-Glo Viability Assay, breast cancer; format: cell-based; conditions: Homo sapiens, 96 h; BT-549, breast cancer, four days; read-out: EC50
# [5] = tested on: DU4475; assay: CellTiter-Glo Viability Assay, breast cancer; format: cell-based; conditions: Homo sapiens, DU-4475, 96 h; DU4475, breast cancer, four days; read-out: EC50
# [6] = tested on: T47D; assay: CellTiter-Glo Viability Assay, breast cancer; format: cell-based; conditions: Homo sapiens, 96 h, breast cancer, four days, read-out: EC50
# [7] = tested on: HCC1599; assay: CellTiter-Glo Viability Assay, breast cancer; format: cell-based; conditions: Homo sapiens, 96 h; HCC1599, breast cancer, four days; read-out: EC50
# [8] = tested on: MDA-MB-231-Luc; assay: CellTiter-Glo Viability Assay, breast cancer; format: cell-based; conditions: Homo sapiens, 96 h; MDA-MB-231-Luc, breast cancer, four days; read-out: EC50
# [9] = tested on: ZR-75-1; assay: CellTiter-Glo Viability Assay, breast cancer; format: cell-based; conditions: Homo sapiens, 96 h; ZR-75-1, breast cancer, four days; read-out: EC50
# [10] = tested on: MCF7; assay: CellTiter-Glo Viability Assay, breast cancer; format: cell-based; conditions: Homo sapiens, 96 h; MCF7, breast cancer, four days; read-out: EC50
# [11] = tested on: CAMA1; assay: CellTiter-Glo Viability Assay, breast cancer; format: cell-based; conditions: Homo sapiens, CAMA-1, 96 h; CAMA1, breast cancer, four days; read-out: EC50
# [12] = tested on: lung cancer (4 cell lines); assay: CellTiter-Glo Viability Assay, lung cancer; format: cell-based; conditions: Homo sapiens, inhibition of cancer cell proliferation
# [13] = tested on: prostate cancer (5 cell lines); assay: CellTiter-Glo Viability Assay, prostate cancer; format: cell-based; conditions: Homo sapiens
# [14] = molecular target: CLK3 (Homo sapiens, UniProt P49761); assay: CLK3 kinase activity assay (Z-lyte, Ser/Thr 18 peptide)
# [15] = tested on: liver cancer (3 cell lines); assay: CellTiter-Glo Viability Assay, liver cancer; format: cell-based; conditions: Homo sapiens, inhibition of cancer cell proliferation
# [16] = tested on: ovarian cancer (4 cell lines); assay: CellTiter-Glo Viability Assay, ovarian cancer; format: cell-based; conditions: Homo sapiens, inhibition of cancer cell proliferation
# [17] = tested on: colorectal cancer (6 cell lines); assay: CellTiter-Glo Viability Assay, colorectal cancer; format: cell-based; conditions: Homo sapiens, inhibition of cancer cell proliferation
# [18] = molecular target: T1, CLK2 (Homo sapiens, UniProt P49760); assay: CLK2 kinase activity assay (Z-lyte, Ser/Thr 6 peptide); format: biochemical; conditions: recombinant CLK2 kinase, ATP 60 μM; read-out: EC50
# T1 construct: purchased Thermo Fisher (Life Technologies), Z'-LYTE Kinase Assay Kits
# Method: All reactions were performed in duplicate.
# [19] = BXPC-3, BxPC3 cell line, read-out: Pancreatic cancer, EC50 BxPC3
# [20] = CAPAN-1, Capan1 cell line, read-out: Pancreatic cancer, EC50 Capan1
# [21] = Capan-2, Capan2 cell line, read-out: Pancreatic cancer, EC50 Capan2
# [22] = MIA PaCa-2 cell line, read-out: Pancreatic cancer, EC50 MIA PaCa-2
# [23] = PANC 05.04 cell line, read-out: Pancreatic cancer, EC50 PANC 05.04
# [24] = PANC-1 cell line, read-out: Pancreatic cancer, EC50 PANC-1
# [25] = UPAFII cell line, read-out: Pancreatic cancer, EC50 UPAFII
# [26] = DND41, DND-41 cell line, read-out: Haematopoietic & Lymphoid tumors, EC50 (μM) DND-41
# [27] = MV4-11, MV-4-11 cell line, read-out: Haematopoietic & Lymphoid tumors, EC50 (μM) MV-4-11
# [28] = Rec1, REC-1 cell line, read-out: Haematopoietic & Lymphoid tumors, EC50 (μM) REC-1
# [29] = SU-DHL-4, SUDHL4 cell line, read-out: Haematopoietic & Lymphoid tumors, EC50 (μM) SUDHL4
# [30] = HL-60 cell line, read-out: Haematopoietic & Lymphoid tumors, EC50 (μM) HL-60
# [31] = JM1 cell line, read-out: Haematopoietic & Lymphoid tumors, EC50 (μM) JM1
# [32] = JURKAT, Clone E6-1 cell line, read-out: Haematopoietic & Lymphoid tumors, EC50 (μM) JURKAT, Clone E6-1
# [33] = JeKo-1 cell line, read-out: Haematopoietic & Lymphoid tumors, EC50 (μM) JeKo-1
# [34] = KASUMI-1 cell line, read-out: Haematopoietic & Lymphoid tumors, EC50 (μM) KASUMI-1
# [35] = Loucy cell line, read-out: Haematopoietic & Lymphoid tumors, EC50 (μM) Loucy
# [36] = MOLT-4 cell line, read-out: Haematopoietic & Lymphoid tumors, EC50 (μM) MOLT-4
# [37] = TF-1 cell line, read-out: Haematopoietic & Lymphoid tumors, EC50 (μM) TF-1
# [38] = TOLEDO cell line, read-out: Haematopoietic & Lymphoid tumors, EC50 (μM) TOLEDO
# [39] = A-427, A427 cell line, read-out: Lung cancer, EC50 (μM) A427
# [40] = HCC78, HCC-78 cell line, read-out: Lung cancer, EC50 (μM) HCC-78
# [41] = NCI-H460 cell line, read-out: Lung cancer, EC50 (μM) NCI-H460
# [42] = NCI-H522 cell line, read-out: Lung cancer, EC50 (μM) NCI-H522
# [43] = DU-145, read-out: Prostate cancer EC50 Du-145
# [44] = PC-3, PC3 cell line, inhibition of cancer cell proliferation, read-out: Prostate cancer EC50 PC3
# [45] = 22Rv1 cell line, inhibition of cancer cell proliferation, read-out: Prostate cancer EC50 22Rv1
# [46] = LNCap clone FGC cell line, inhibition of cancer cell proliferation, read-out: Prostate cancer EC50 LNCap clone FGC
# [47] = VCaP (Sigma) cell line, inhibition of cancer cell proliferation, read-out: Prostate cancer EC50 VCaP (Sigma)
# [48] = SNU-398, SNU398 cell line, read-out: Liver cancer, EC50 SNU398
# [49] = HEPG2 cell line, read-out: Liver cancer, EC50 HEPG2
# [50] = PLC/PRF/5 cell line, read-out: Liver cancer, EC50 PLC/PRF/5
# [51] = PA-1, PA1 cell line, read-out: Ovarian cancer, EC50 (μM) PA1
# [52] = TOV112D, TOV-112D cell line, read-out: Ovarian cancer, EC50 (μM) TOV-112D
# [53] = OV-90 cell line, read-out: Ovarian cancer, EC50 (μM) OV-90
# [54] = OVCAR-3 cell line, read-out: Ovarian cancer, EC50 (μM) OVCAR-3
# [55] = HCT-116, HCT116 cell line, read-out: Colorectal cancer, EC50 (μM) HCT116
# [56] = HT-29, HT29 cell line, read-out: Colorectal cancer, EC50 (μM) HT29
# [57] = SW-620, SW620 cell line, read-out: Colorectal cancer, EC50 (μM) SW620
# [58] = DLD-1 cell line, read-out: Colorectal cancer, EC50 (μM) DLD-1
# [59] = SW48 cell line, read-out: Colorectal cancer, EC50 (μM) SW48
# [60] = SW480 cell line, read-out: Colorectal cancer, EC50 (μM) SW480
# CLK3, sequence (P49761 whole entry): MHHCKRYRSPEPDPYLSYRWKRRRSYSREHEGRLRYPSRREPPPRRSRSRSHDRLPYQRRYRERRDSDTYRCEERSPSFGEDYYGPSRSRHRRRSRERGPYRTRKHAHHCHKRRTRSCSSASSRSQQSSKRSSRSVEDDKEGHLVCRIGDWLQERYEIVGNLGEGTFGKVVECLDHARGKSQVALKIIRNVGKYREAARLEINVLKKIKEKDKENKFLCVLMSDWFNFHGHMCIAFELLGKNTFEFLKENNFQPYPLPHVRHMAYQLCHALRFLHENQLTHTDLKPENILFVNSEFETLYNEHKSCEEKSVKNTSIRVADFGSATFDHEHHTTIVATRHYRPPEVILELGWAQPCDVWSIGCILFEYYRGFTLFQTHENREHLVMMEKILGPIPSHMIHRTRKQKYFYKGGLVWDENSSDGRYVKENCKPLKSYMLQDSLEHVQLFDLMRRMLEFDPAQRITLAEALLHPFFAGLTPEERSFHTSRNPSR
# T1 sequence (P49760 whole entry): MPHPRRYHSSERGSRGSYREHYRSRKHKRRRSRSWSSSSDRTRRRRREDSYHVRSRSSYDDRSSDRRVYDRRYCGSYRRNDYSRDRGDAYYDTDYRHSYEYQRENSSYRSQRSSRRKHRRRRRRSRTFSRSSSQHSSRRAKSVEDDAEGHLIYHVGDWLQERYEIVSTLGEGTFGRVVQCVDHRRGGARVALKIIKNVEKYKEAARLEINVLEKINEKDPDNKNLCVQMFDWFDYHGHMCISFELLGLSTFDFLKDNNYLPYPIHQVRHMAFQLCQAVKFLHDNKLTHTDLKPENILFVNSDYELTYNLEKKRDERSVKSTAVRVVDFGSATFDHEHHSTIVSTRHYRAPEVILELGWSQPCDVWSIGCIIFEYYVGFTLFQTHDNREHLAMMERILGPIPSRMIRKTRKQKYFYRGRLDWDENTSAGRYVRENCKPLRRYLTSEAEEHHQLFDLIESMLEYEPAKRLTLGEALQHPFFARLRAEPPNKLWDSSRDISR
smiles,measurement,setting,value
CC(C)Nc1cncc(-c2ccc3cnc(NC(=O)c4cn(C5CCN(CCF)CC5)nn4)cc3c2)n1 [Compound 85],EC50,[1],880 nM
same,EC50,[2]; [19],527 nM
same,EC50,[2]; [20],224 nM
same,EC50,[2]; [21],295 nM
same,EC50,[2]; [22],148 nM
same,EC50,[2]; [23],419 nM
same,EC50,[2]; [24],488 nM
same,EC50,[2]; [25],135 nM
same,EC50,[3]; [26],0.207 µM
same,EC50,[3]; [27],0.067 µM
same,EC50,[3]; [28],0.082 µM
same,EC50,[3]; [29],0.491 µM
same,EC50,[3]; [30],0.252 µM
same,EC50,[3]; [31],0.175 µM
same,EC50,[3]; [32],0.466 µM
same,EC50,[3]; [33],0.109 µM
same,EC50,[3]; [34],0.209 µM
same,EC50,[3]; [35],0.241 µM
same,EC50,[3]; [36],0.13 µM
same,EC50,[3]; [37],0.226 µM
same,EC50,[3]; [38],0.122 µM
same,EC50,[4],210 nM
same,EC50,[5],420 nM
same,EC50,[6],635 nM
same,EC50,[7],94 nM
same,EC50,[8],> 10000 nM
same,EC50,[9],506 nM
same,EC50,[10],683 nM
same,EC50,[11],399 nM
same,EC50,[12]; [39],0.452 µM
same,EC50,[12]; [40],0.64 µM
same,EC50,[12]; [41],0.564 µM
same,EC50,[12]; [42],0.412 µM
same,EC50,[13]; [43],239 nM
same,EC50,[13]; [44],250 nM
same,EC50,[13]; [45],414 nM
same,EC50,[13]; [46],509 nM
same,EC50,[13]; [47],505 nM
same,EC50,[14],12 nM
same,EC50,[15]; [48],96 nM
same,EC50,[15]; [49],> 10000 nM
same,EC50,[15]; [50],350 nM
same,EC50,[16]; [51],> 10 µM
same,EC50,[16]; [52],0.143 µM
same,EC50,[16]; [53],0.562 µM
same,EC50,[16]; [54],0.171 µM
same,EC50,[17]; [55],0.077 µM
same,EC50,[17]; [56],0.198 µM
same,EC50,[17]; [57],0.067 µM
same,EC50,[17]; [58],0.173 µM
same,EC50,[17]; [59],0.059 µM
same,EC50,[17]; [60],0.136 µM
same,EC50,[18],4 nM
CN1CC=C(c2cc(C(=O)Nc3cc4cc(-c5cncc(NC(C)(C)C)n5)cnc4cn3)ccn2)CC1 [Compound 86],EC50,[1],2710 nM
same,EC50,[2]; [19],1710 nM
same,EC50,[2]; [20],1890 nM
same,EC50,[2]; [21],2630 nM
same,EC50,[2]; [22],1010 nM
same,EC50,[2]; [23],2890 nM
same,EC50,[2]; [24],5420 nM
same,EC50,[2]; [25],983 nM
same,EC50,[3]; [26],1.37 µM
same,EC50,[3]; [27],0.292 µM
same,EC50,[3]; [28],0.663 µM
same,EC50,[3]; [29],1.11 µM
same,EC50,[3]; [30],2.85 µM
same,EC50,[3]; [31],0.645 µM
same,EC50,[3]; [32],2.14 µM
same,EC50,[3]; [33],0.884 µM
same,EC50,[3]; [34],1.22 µM
same,EC50,[3]; [35],1.07 µM
same,EC50,[3]; [36],1.46 µM
same,EC50,[3]; [37],2.11 µM
same,EC50,[3]; [38],0.811 µM
same,EC50,[4],2890 nM
same,EC50,[5],2500 nM
same,EC50,[6],> 10000 nM
same,EC50,[7],> 10000 nM
same,EC50,[8],3790 nM
same,EC50,[9],4180 nM
same,EC50,[10],> 10000 nM
same,EC50,[11],2130 nM
same,EC50,[12]; [39],1.5 µM
same,EC50,[12]; [40],6.86 µM
same,EC50,[12]; [41],2.72 µM
same,EC50,[12]; [42],0.895 µM
same,EC50,[13]; [43],2690 nM
same,EC50,[13]; [44],3350 nM
same,EC50,[13]; [45],1210 nM
same,EC50,[13]; [46],5330 nM
same,EC50,[13]; [47],2250 nM
same,EC50,[14],11.5 nM
same,EC50,[15]; [48],459 nM
same,EC50,[15]; [49],3860 nM
same,EC50,[15]; [50],> 10000 nM
same,EC50,[16]; [51],1.25 µM
same,EC50,[16]; [52],1.23 µM
same,EC50,[16]; [53],6.93 µM
same,EC50,[16]; [54],1.2 µM
same,EC50,[17]; [55],0.718 µM
same,EC50,[17]; [56],1.17 µM
same,EC50,[17]; [57],0.49 µM
same,EC50,[17]; [58],0.848 µM
same,EC50,[17]; [59],0.454 µM
same,EC50,[17]; [60],1.46 µM
same,EC50,[18],4.7 nM
